According to the supplement of paper PMC10307832:

Assays:
Test in all cases: relative viability (nuclei count vs DMSO), 5 days (fraction); higher = more cells survive
A-427 = system: A-427
Outline: (§1)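 One day after seeding in 1536-well plates, lung cancer cell lines were dosed by pin tool. Dosing was either single-drug or a fixed anchor-drug dose plus five library-drug doses (not always all listed) in √10 steps. After 5 days, nuclei were stained in one fix-and-stain step and counted on 4× images, and relative viability is the nuclei count of treated wells over that of vehicle wells, given as the median of duplicate plates.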

ABC-1 = system: ABC-1
Outline: as §1

COR-L23 = system: COR-L23
Outline: as §1

ChaGo-K-1 = system: ChaGo-K-1
Outline: as §1

EMC-BAC-2 = system: EMC-BAC-2
Outline: as §1

HARA = system: HARA
Outline: as §1

HCC-15 = system: HCC-15
Outline: as §1

HCC-366 = system: HCC-366
Outline: as §1

HCC-78 = system: HCC-78
Outline: as §1

LC-2-ad = system: LC-2-ad
Outline: as §1

LK-2 = system: LK-2
Outline: as §1

NCI-H1650 = system: NCI-H1650
Outline: as §1

SMILES: Clc1ccc(Nc2nnc(Cc3ccncc3)c3ccccc23)cc1 [Vatalanib] + N=C(N)NC(=N)NCCc1ccccc1 [Phenformin] (partner 250 µM)
- relative viability (A-427; first compound 0.04 µM): 0.427
- relative viability (A-427; first compound 0.1265 µM): 0.295
- relative viability (A-427; first compound 0.4 µM): 0.285
- relative viability (A-427; first compound 1.265 µM): 0.31
- relative viability (A-427; first compound 4 µM): 0.298
- relative viability (ABC-1; first compound 0.04 µM): 0.241
- relative viability (ABC-1; first compound 0.1265 µM): 0.242
- relative viability (ABC-1; first compound 1.265 µM): 0.262
- relative viability (ABC-1; first compound 4 µM): 0.222
- relative viability (COR-L23; first compound 0.04 µM): 0.442
- relative viability (COR-L23; first compound 0.1265 µM): 0.43
- relative viability (COR-L23; first compound 0.4 µM): 0.467
- relative viability (COR-L23; first compound 1.265 µM): 0.389
- relative viability (COR-L23; first compound 4 µM): 0.402
- relative viability (ChaGo-K-1; first compound 0.04 µM): 0.453
- relative viability (ChaGo-K-1; first compound 0.1265 µM): 0.407
- relative viability (ChaGo-K-1; first compound 0.4 µM): 0.522
- relative viability (ChaGo-K-1; first compound 1.265 µM): 0.432
- relative viability (ChaGo-K-1; first compound 4 µM): 0.431
- relative viability (EMC-BAC-2; first compound 0.04 µM): 0.511
- relative viability (EMC-BAC-2; first compound 0.1265 µM): 0.538
- relative viability (EMC-BAC-2; first compound 0.4 µM): 0.542
- relative viability (EMC-BAC-2; first compound 1.265 µM): 0.497
- relative viability (EMC-BAC-2; first compound 4 µM): 0.512
- relative viability (HARA; first compound 0.04 µM): 0.452
- relative viability (HARA; first compound 0.1265 µM): 0.397
- relative viability (HARA; first compound 0.4 µM): 0.497
- relative viability (HARA; first compound 1.265 µM): 0.42
- relative viability (HARA; first compound 4 µM): 0.354
- relative viability (HCC-15; first compound 0.04 µM): 0.487
- relative viability (HCC-15; first compound 0.1265 µM): 0.46
- relative viability (HCC-15; first compound 0.4 µM): 0.441
- relative viability (HCC-15; first compound 1.265 µM): 0.443
- relative viability (HCC-15; first compound 4 µM): 0.457
- relative viability (HCC-366; first compound 0.04 µM): 0.597
- relative viability (HCC-366; first compound 0.1265 µM): 0.554
- relative viability (HCC-366; first compound 0.4 µM): 0.6
- relative viability (HCC-366; first compound 1.265 µM): 0.575
- relative viability (HCC-366; first compound 4 µM): 0.547
- relative viability (HCC-78; first compound 0.04 µM): 0.589
- relative viability (HCC-78; first compound 0.1265 µM): 0.613
- relative viability (HCC-78; first compound 0.4 µM): 0.631
- relative viability (HCC-78; first compound 1.265 µM): 0.649
- relative viability (HCC-78; first compound 4 µM): 0.575
- relative viability (LC-2-ad; first compound 0.04 µM): 0.652
- relative viability (LC-2-ad; first compound 0.1265 µM): 0.553
- relative viability (LC-2-ad; first compound 1.265 µM): 0.517
- relative viability (LC-2-ad; first compound 4 µM): 0.55
- relative viability (LK-2; first compound 0.04 µM): 0.408
- relative viability (LK-2; first compound 0.1265 µM): 0.398
- relative viability (LK-2; first compound 0.4 µM): 0.381
- relative viability (LK-2; first compound 1.265 µM): 0.466
- relative viability (LK-2; first compound 4 µM): 0.393
- relative viability (NCI-H1650; first compound 0.04 µM): 0.401
- relative viability (NCI-H1650; first compound 0.1265 µM): 0.307
- relative viability (NCI-H1650; first compound 0.4 µM): 0.36
- relative viability (NCI-H1650; first compound 1.265 µM): 0.364
- relative viability (NCI-H1650; first compound 4 µM): 0.403
